Tests used:
Format in all cases: biochemical
[1] = target: T1, purified recombinant rat FAAH (Rattus norvegicus, UniProt P97612); experiment: FAAH enzyme assay, Ki (Dixon plot), rat FAAH
T1 construct: made in house; host or cells: E. coli
T1 sequence (P97612 1-579): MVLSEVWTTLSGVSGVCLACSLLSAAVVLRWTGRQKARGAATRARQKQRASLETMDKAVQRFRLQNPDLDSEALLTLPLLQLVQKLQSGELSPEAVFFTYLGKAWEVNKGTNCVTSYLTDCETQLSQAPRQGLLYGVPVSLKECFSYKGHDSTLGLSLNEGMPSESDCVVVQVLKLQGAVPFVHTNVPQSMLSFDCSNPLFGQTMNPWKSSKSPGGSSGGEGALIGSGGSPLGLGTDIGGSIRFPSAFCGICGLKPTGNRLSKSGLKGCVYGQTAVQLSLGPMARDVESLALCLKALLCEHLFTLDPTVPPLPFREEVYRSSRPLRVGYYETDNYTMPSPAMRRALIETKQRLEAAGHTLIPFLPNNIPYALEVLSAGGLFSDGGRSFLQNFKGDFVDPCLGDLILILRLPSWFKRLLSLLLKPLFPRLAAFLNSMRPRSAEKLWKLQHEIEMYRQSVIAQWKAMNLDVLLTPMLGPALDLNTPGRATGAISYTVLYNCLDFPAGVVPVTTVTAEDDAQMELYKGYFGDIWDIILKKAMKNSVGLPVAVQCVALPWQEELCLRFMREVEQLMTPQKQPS

FAAH = target: T2, FAAH (Homo sapiens, UniProt O00519); experiment: FAAH inhibition IC50, human; set-up: expressed in transfected cells; host or cells: COS-7 (transient transfection), solubilized membrane extracts; details: inhibition at 3-5 test compound concentrations
T2 sequence (O00519 1-579): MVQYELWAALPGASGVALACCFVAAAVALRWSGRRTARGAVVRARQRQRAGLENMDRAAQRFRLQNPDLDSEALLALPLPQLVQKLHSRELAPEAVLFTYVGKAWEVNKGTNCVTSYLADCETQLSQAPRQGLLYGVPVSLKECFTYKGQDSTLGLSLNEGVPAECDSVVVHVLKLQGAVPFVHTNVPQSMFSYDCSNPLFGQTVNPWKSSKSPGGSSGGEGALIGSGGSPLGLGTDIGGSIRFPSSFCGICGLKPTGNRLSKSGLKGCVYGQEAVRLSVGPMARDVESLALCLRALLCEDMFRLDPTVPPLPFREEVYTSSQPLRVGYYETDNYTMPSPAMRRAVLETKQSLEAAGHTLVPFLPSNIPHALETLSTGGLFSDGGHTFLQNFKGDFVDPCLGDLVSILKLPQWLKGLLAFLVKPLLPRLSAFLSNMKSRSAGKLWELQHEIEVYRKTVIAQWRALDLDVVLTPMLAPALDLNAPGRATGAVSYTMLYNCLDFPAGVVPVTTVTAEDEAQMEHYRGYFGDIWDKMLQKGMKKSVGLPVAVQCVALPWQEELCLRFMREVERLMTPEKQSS
Procedure: (§1) Enzyme assays were performed at 20-23° C. with purified recombinant rat FAAH expressed in E. coli (Patricelli, M. P.; Lashuel, H. A.; et al. Biochemistry 1998, 37, 15177-15187) (unless indicated otherwise) or with solubilized COS-7 membrane extracts from cells transiently transfected with human FAAH cDNA (Giang, D. K.; Cravatt, B. F. Proc. Natl. Acad. Sci. U.S.A. 1997, 94, 2238-2242) (where specifically indicated) in a buffer of 125 mM Tris/1 mM EDTA/0.2% glycerol/0.02% Triton X-100/0.4 mM Hepes, pH 9.0 buffer (Patricelli, M. P.; Patterson, J. P.; et al. Bioorg. Med. Chem. Lett. 1998, 8, 613-618). […] NT=no data available.
(§2) IC50 values were determined from the inhibition observed at 3-5 different test compound concentrations (from three or more trials at each concentration) using the formula IC50=[I]/[K0/Ki)-1], where K0 is the control reaction rate without inhibitor and Ki is the rate with test compound at concentration [I] (Conde-Frieboes, K. et al. J. Am. Chem. Soc. 1996, 118, 5519-5525). NT=no data available.

rat FAAH = target: T3, rat FAAH (Rattus norvegicus, UniProt P97612); experiment: FAAH inhibition IC50, rat; details: inhibition at 3-5 test compound concentrations
T3 construct: made in house; host or cells: E. coli
T3 sequence (P97612 1-579): T1 sequence (P97612 1-579)
Procedure: as §1, §2

[2] = purified recombinant rat FAAH expressed in E. coli, 14C-oleamide hydrolysis, pH 9.0, 20-23° C.

SMILES | Ki [1, 2] | IC50 (FAAH) | IC50 (rat FAAH) | Ki ([1]; pH 9)
CN1CCN(Cc2ccc(-c3ccc(CCC(=O)c4ncc(-c5cccc(C(=O)O)n5)o4)cc3)cc2)CC1 [Example 45, 6-(2-{3-[4′-(4-Methyl-piperazin-1-ylmethyl)-biphenyl-4-yl]-propionyl}-oxazol-5-yl)-pyridine-2-carboxylic acid] | 1230 nM | – | – | –
O=C(O)c1ccc(-c2cnc(C(=O)CCc3ccc(COc4ccccc4)cc3)o2)nc1 [Example 19, 6-{2-[3-(4-Phenoxymethyl-phenyl)-propionyl]-oxazol-5-yl}-nicotinic acid] | 4.6 nM | 0.8 nM | 2.5 nM | –
O=C(O)c1ccc(-c2cnc(C(=O)CCc3ccc(Oc4ccccc4)cc3)o2)nc1 [Example 15, 6-{2-[3-(4-Phenoxy-phenyl)-propionyl]-oxazol-5-yl}-nicotinic acid] | 33 nM | 0.3 nM | 0.2 nM | –
COC(=O)c1ccc(-c2cnc(C(=O)CCc3ccc(-c4ccccc4)cc3)o2)nc1 [Example 23, 6-[2-(3-Biphenyl-4-yl-propionyl)-oxazol-5-yl]-nicotinic acid methyl ester] | 2.2 nM | 5 nM | 8 nM | –
O=C(CCc1ccc(Nc2ccccc2)cc1)c1ncc(-c2ccccn2)o1 [Example 11g, 1-Oxo-1-[5-(2-pyridyl)oxazol-2-yl]-3-(4-(phenylamino)phenyl)-propane] | 2 nM | – | – | –
O=C(CCc1ccc(-c2ccccc2)cc1)c1ncc(-c2ccncc2)o1 [Example 30, 3-Biphenyl-4-yl-1-(5-pyridin-4-yl-oxazol-2-yl)-propan-1-one] | 2.3 nM | 16 nM | 3 nM | –
O=C(CCc1ccc(Sc2ccccc2)cc1)c1ncc(-c2ccccn2)o1 [Example 11i, 1-Oxo-1-[5-(2-pyridyl)oxazol-2-yl]-3-(4-(phenylthio)phenyl)propane] | 2.2 nM | – | – | –
COC(=O)c1cccc(-c2cnc(C(=O)CCc3ccc(-c4ccc(CN5CCOCC5)cc4)cc3)o2)n1 [Example 35, 6-{2-[3-(4′-Morpholin-4-ylmethyl-biphenyl-4-yl)-propionyl]-oxazol-5-yl}-pyridine-2-carboxylic acid methyl ester] | 31 nM | 21 nM | 2 nM | –
COC(=O)c1cccc(-c2cnc(C(=O)CCc3ccc(-c4ccc(CN5CCCCC5)cc4)cc3)o2)n1 [Example 34, 6-{2-[3-(4′-Piperidin-1-ylmethyl-biphenyl-4-yl)-propionyl]-oxazol-5-yl}-pyridine-2-carboxylic acid methyl ester] | 9 nM | – | – | –
O=C(O)c1ccc(-c2cnc(C(=O)CCc3ccc(-c4ccccc4)cc3)o2)nc1 [Example 25, 6-[2-(3-Biphenyl-4-yl-propionyl)-oxazol-5-yl]-nicotinic acid] | – | 0.5 nM | 0.3 nM | 14 nM
O=C(CCc1ccc(COc2ccccc2)cc1)c1ncc(-c2cccc(-c3nnn[nH]3)n2)o1 [Example 47, 3-(4-Phenoxymethyl-phenyl)-1-{5-[6-(1H-tetrazol-5-yl)-pyridin-2-yl]-oxazol-2-yl}-propan-1-one] | 21 nM | – | – | –
O=C(O)c1cccc(-c2cnc(C(=O)CCc3ccc(Oc4ccccc4)cc3)o2)n1 [Example 14, 6-{2-[3-(4-Phenoxy-phenyl)-propionyl]-oxazol-5-yl}-pyridine-2-carboxylic acid] | 65 nM | 2.7 nM | 1.5 nM | –
O=C(COc1cccc(OCc2ccccc2)c1)c1ncc(-c2ccccn2)o1 [Example 11d, 2-(3-(Benzyloxy)phenoxy)-1-(5-(pyridin-2-yl)oxazol-2-yl)ethanone] | 2100 nM | – | – | –
COC(=O)c1ccc(-c2cnc(C(=O)CCc3ccc(COc4ccccc4)cc3)o2)nc1 [Example 17] | 3.5 nM | 0.8 nM | 2.5 nM | –
N#Cc1cccc(-c2cnc(C(=O)CCc3ccc(-c4ccccc4)cc3)o2)n1 [Example 20, 6-[2-(3-Biphenyl-4-yl-propionyl)-oxazol-5-yl]-pyridine-2-carbonitrile] | 3 nM | 11 nM | 2 nM | –
O=C(O)c1ccc(-c2cnc(C(=O)CCc3ccc(-c4ccccc4)cc3)o2)cn1 [Example 33, 5-[2-(3-Biphenyl-4-yl-propionyl)-oxazol-5-yl]-pyridine-2-carboxylic acid] | 44 nM | 580 nM | 44 nM | –
COC(=O)c1cccc(-c2cnc(C(=O)CCc3ccc(-c4ccc(CN(C)C)cc4)cc3)o2)n1 [Example 38] | 29 nM | – | – | –
O=C(O)c1cccc(-c2cnc(C(=O)CCc3ccc(-c4ccc(CN5CCCC5)cc4)cc3)o2)n1 [Example 43, 6-{2-[3-(4′-Pyrrolidin-1-ylmethyl-biphenyl-4-yl)-propionyl]-oxazol-5-yl}-pyridine-2-carboxylic acid] | 127 nM | – | – | –
O=C(CCc1ccc(Oc2ccccc2)cc1)c1ncc(-c2ccccn2)o1 [Example 11f, 1-Oxo-1-[5-(2-pyridyl)oxazol-2-yl]-3-(4-phenoxyphenyl)propane] | 3.4 nM | – | – | –
COC(=O)c1cccc(-c2cnc(C(=O)CCc3ccc(-c4ccc(CN5CCCC5)cc4)cc3)o2)n1 [Example 37] | 18 nM | – | – | –
N#Cc1cccc(-c2cnc(C(=O)CCc3ccc(COc4ccccc4)cc3)o2)n1 [Example 48] | 3 nM | – | – | –
COC(=O)c1cccc(-c2cnc(C(=O)CCc3ccc(-c4ccc(CN5CCSCC5)cc4)cc3)o2)n1 [Example 36, 6-{2-[3-(4′-Thiomorpholin-4-ylmethyl-biphenyl-4-yl)-propionyl]-oxazol-5-yl}-pyridine-2-carboxylic acid methyl ester] | 5 nM | – | – | –
O=C(O)c1cccc(-c2cnc(C(=O)CCc3ccc(-c4ccc(CN5CCCCC5)cc4)cc3)o2)n1 [Example 40, 6-{2-[3-(4′-Piperidin-1-ylmethyl-biphenyl-4-yl)-propionyl]-oxazol-5-yl}-pyridine-2-carboxylic acid] | 44 nM | – | – | –
O=C(CCc1cccc(OCc2ccccc2)c1)c1ncc(-c2ccccn2)o1 [Example 11c, 1-Oxo-1-[5-(2-pyridyl)oxazol-2-yl]-3-(3-(benzyloxy)phenyl)-propane] | 25 nM | – | – | –
O=C(COc1ccc(OCc2ccccc2)cc1)c1ncc(-c2ccccn2)o1 [Example 11b, 2-(4-(Benzyloxy)phenoxy)-1-(5-(pyridin-2-yl)oxazol-2-yl)ethanone] | 5300 nM | – | – | –
CN(C)Cc1ccc(-c2ccc(CCC(=O)c3ncc(-c4cccc(C(=O)O)n4)o3)cc2)cc1 [Example 44, 6-{2-[3-(4′-Dimethylaminomethyl-biphenyl-4-yl)-propionyl]-oxazol-5-yl}-pyridine-2-carboxylic acid] | 150 nM | – | – | –
COC(=O)c1cccc(-c2cnc(C(=O)CCc3ccc(-c4ccc(CN5CCN(C)CC5)cc4)cc3)o2)n1 [Example 39, 6-(2-{3-[4′-(4-Methyl-piperazin-1-ylmethyl)-biphenyl-4-yl]-propionyl}-oxazol-5-yl)-pyridine-2-carboxylic acid methyl ester] | 200 nM | – | – | –
O=C(CCc1ccc(Cc2ccccc2)cc1)c1ncc(-c2ccccn2)o1 [Example 11h, 1-Oxo-1-[5-(2-pyridyl)oxazol-2-yl]-3-(4-benzylphenyl)propane] | 3.2 nM | – | – | –
O=C(O)c1cccc(-c2cnc(C(=O)CCc3ccc(-c4ccc(CN5CCSCC5)cc4)cc3)o2)n1 [Example 42, 6-{2-[3-(4′-Thiomorpholin-4-ylmethyl-biphenyl-4-yl)-propionyl]-oxazol-5-yl}-pyridine-2-carboxylic acid] | 28 nM | – | – | –
